Reference: patent US8686016B2, “Schweinfurthins and uses thereof” (The United States of America, as represented by the …, priority 2009, dated 2014)
“Also recorded” adds a separate entry of the source.

How the values were obtained:
[1] = system: NCI 60-cell line panel; test: NCI 60 cell line assay; format: cell-based, human
[2] = system: SF-268; test: NCI60 cell line response to SA, SF-268; format: cell-based, human; details: SF-268, doubling time 33.1 hours
[3] = system: A549 human lung carcinoma cells; test: Clonogenic assay, A549; format: cell-based; details: 18 hrs treatment, colonies after one week
Procedure: Clonogenic Assays: Monolayers of cells were treated for 18 hrs with SA, and then harvested, counted, and seeded to 35 mm dishes at a density of 1000 cells per dish. After one week, macroscopic colonies were stained with crystal violet (Sigma, St. Louis, Mo., USA) and counted.

[4] = system: SF-295 cells; test: XTT cell proliferation assay, SF-295; format: cell-based, human; details: 48 hours
Procedure: (§1) XTT Cell Proliferation Assay: Cells were seeded into 96-well plates at a density of 2,000 cells/well and allowed to reattach overnight. Cells were treated with SA, synthetic analogs, camptothecin (NCI Chemotherapeutics Repository, Md., USA), or DMSO control at the indicated concentrations continuously for 48 hours followed by assay in the 96-well plate for relative viable cell number using the dye […] (XTT) and a Wallac-Victor 2 plate reader (Perkin-Elmer, Waltham, Mass., USA). Absorbance was determined at 450 nm with 650 nm as a reference reading. Primary astrocytes were additionally assayed at a 96 hour time point.

[5] = system: KR158 astrocytoma cells (Nf1−/−; Trp53−/−); test: XTT cell proliferation assay, KR158; format: cell-based, mouse
Procedure: as §1

[6] = system: KR158 cells transduced with empty vector (PMSCV); test: XTT cell proliferation assay, KR158 empty vector; format: cell-based, mouse; details: two-day cell proliferation assay
Procedure: as §1
Constructs and Transfections: NF1-GRD retroviral constructs were obtained from Indiana University. Cells transduced with the NF1-GRD construct or PMSCV empty vector control as previously described (Hiatt et al., J. Biol. Chem., 2001, 276:7240-5) were maintained in 1 μg/mL puromycin (Sigma).

[7] = system: sporadic MPNST STS26T cells; test: XTT cell proliferation assay, STS26T; format: cell-based, human
Procedure: as §1
Cell lines and culture: Human MPNST cell lines (STS26T and T265) were obtained from the Pediatric Oncology Branch, NCI (Bethesda, Md., USA).

[8] = system: A549 cells; test: Cell morphology / actin confocal microscopy, A549; format: cell-based, human; details: 18 hours treatment
Procedure: (§2) Cell Morphology Assays and Confocal Microscopy: To assay cytoskeleton morphology, KR158 cells, mouse primary astrocytes, KR158 clones expressing the NF1-GRD constructs, K14553 cells, and A549 were seeded to cover slips and allowed to reattach overnight. Cells were treated for 18 hours with either the indicated concentrations of SA, or the vehicle control DMSO. The cover slips were fixed in 3.7% paraformaldehyde, permeablized in 0.1% Triton-X100, and stained with Alexa Fluor 488-phalloidin (Invitrogen, Carlsbad, Calif., USA) to detect actin and cells were mounted in Prolong Antifade containing DAPI (Invitrogen) to stain nuclei. The cells were imaged on a LSM510 confocal microscope (Carl Zeiss Inc., Jena, Germany). For phospho-myosin light chain 2 (MLC) detection, cells were seeded to coverslips as described above. Cells were serum starved in 0.5% FBS and SA or DMSO vehicle control for 18 hours, and then pulsed with 10 ng/mL EGF (Invitrogen) for 5 min. […] Actin structures were monitored continuously over a 16 hr period using confocal microscopy equipped with a growth chamber (37° C., humidified atmosphere and 5% CO2). […]

[9] = system: phosphorylation of Ser 19 on myosin light chain 2 (MLC2); test: Phospho-myosin light chain 2 immunostaining, KR158; format: cell-based, mouse; details: KR158 cells treated with SA and EGF
Procedure: as §2

[10] = system: MLC phosphorylation; test: Phospho-myosin light chain immunostaining, MPNST cell lines; format: cell-based, mouse
Procedure: as §2

How did the selectivity [1] turn out when `CC(C)=CCC/C(C)=C/Cc1c(O)cc(/C=C/c2cc(O)c3c(c2)C[C@@H]2C(C)(C)[C@H](O)[C@H](O)C[C@@]2(C)O3)cc1O` [SA, Schweinfurthin A] was run?
Its selectivity is 1000 fold.

What about the differential cytotoxicity ([1]; NCI 60-cell line panel) of the same compound?
Its differential cytotoxicity is “significant differential cytotoxicity”.

What about the logGI50 [2] of the same compound?
The logGI50 was −5.62.

And the colony growth [3]?
Its colony growth is “not inhibited; also recorded: formed colonies up to the highest concentration of SA tested”.

And the “inhibition of proliferation (percent viability versus control)” value [4]?
The value was “sensitive; also recorded: inhibited both the KR158 and SF-295 cell lines in a dose dependent manner”.

What about the “inhibition of proliferation (percent viability versus control)” value ([5]; 48 hours, XTT) of the same compound?
Its value is “highly active; also recorded: sensitive; also recorded: inhibited both the KR158 and SF-295 cell lines in a dose dependent manner”.

And the GI50 ([5]; Mus musculus, KR158, Nf1-mutant astrocytoma cells)?
Its GI50 is 10 nM.

And the inhibition of proliferation [6]?
Its inhibition of proliferation is “highly active”.

And the inhibition of proliferation [7]?
The inhibition of proliferation was “much weaker inhibition of proliferation; also recorded: are not”.

What about the “actin organization, phalloidin staining” value [8] of the same compound?
Its value is “no visible changes in actin organization”.

And the “MLC phosphorylation (Ser 19)” value [9]?
The value was “dose dependent decrease of MLC phosphorylation”.

What about the MLC phosphorylation [10] of the same compound?
Its MLC phosphorylation is “reduced MLC phosphorylation”.
